PMC6152416, “Pharmacological and Toxicological Screening of Novel Benzimidazole-Morpholine Derivatives as Dual-Acting Inhibitors” (Molecules : A Journal of Synthetic Chemistry and Natural …, 2017)
Where two headings read alike, the source gives them in different places.

Experiments:
Type in all cases: biochemical
COX-1 = biological target: T1, COX-1 (Ovis aries, UniProt P05979); experiment: Fluorimetric COX-1 inhibition screening kit (BioVision); conditions: for COX-1 inhibition at the initial concentrations: 10^−3 M and 10^−4 M; for inhibition at 10 µM: 10^−5 M; for inhibition at 1 µM: 10^−6 M; for inhibition at 0.1 µM: 10^−7 M; for inhibition at 0.01 µM: 10^−8 M; for inhibition at 0.001 µM: 10^−9 M
T1 construct: purchased BioVision (Milpitas, CA, USA) K548-100
T1 sequence (P05979 25-600): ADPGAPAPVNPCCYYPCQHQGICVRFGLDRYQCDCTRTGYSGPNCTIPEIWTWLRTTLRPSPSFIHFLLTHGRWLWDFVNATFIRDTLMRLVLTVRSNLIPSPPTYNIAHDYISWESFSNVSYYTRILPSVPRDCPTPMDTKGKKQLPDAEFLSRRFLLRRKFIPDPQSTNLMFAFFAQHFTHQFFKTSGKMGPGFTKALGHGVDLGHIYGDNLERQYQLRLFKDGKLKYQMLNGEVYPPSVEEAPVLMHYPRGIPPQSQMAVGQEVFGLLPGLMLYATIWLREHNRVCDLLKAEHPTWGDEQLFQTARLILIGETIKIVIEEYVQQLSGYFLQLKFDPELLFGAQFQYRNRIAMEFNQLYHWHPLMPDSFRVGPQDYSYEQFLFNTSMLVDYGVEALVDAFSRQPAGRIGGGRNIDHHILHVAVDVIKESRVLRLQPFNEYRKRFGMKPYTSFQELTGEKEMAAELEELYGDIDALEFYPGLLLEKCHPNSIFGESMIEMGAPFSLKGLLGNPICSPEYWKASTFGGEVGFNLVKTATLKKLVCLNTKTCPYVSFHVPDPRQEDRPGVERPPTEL
Method: (§1) Inhibitory potency of the compounds on COX-1 and COX-2 enzymes was determined by using fluorimetric COX-1 and COX-2 inhibition screening kits from BioVision (Milpitas, CA, USA). The experimental protocol as described in the guides provided by the supplier was followed. All of the pipetting were performed using a robotized system to increase speed, accuracy and precision. Fluorescence intensities of the samples were kinetically measured at 25 °C for 5–10 min by monitoring emissions at 587 nm after excitation at 535 nm. Two appropriate points (T1 and T2) in the linear range of the plot were chosen and the corresponding fluorescence values (RFU1 and RFU2) were obtained. The slope for all samples including Enzyme Control (EC) was calculated by dividing the net ΔRFU (RFU2 − RFU1) values by the time ΔT (T2 − T1). Percentage of relative inhibition was calculated by using the following equation:% Relative inhibition = (Slope of EC − Slope of S/Slope of EC) × 100 where S is the term representing the tested compound [51, 52]. […] The IC50 values were calculated using the plots of the enzyme activity against concentrations by applying regression analyses.

human recombinant MAO-A = biological target: T2, human recombinant MAO-A (Homo sapiens, UniProt P21397); experiment: MAO inhibition assay (kynuramine, fluorimetric)
T2 sequence (P21397 1-527): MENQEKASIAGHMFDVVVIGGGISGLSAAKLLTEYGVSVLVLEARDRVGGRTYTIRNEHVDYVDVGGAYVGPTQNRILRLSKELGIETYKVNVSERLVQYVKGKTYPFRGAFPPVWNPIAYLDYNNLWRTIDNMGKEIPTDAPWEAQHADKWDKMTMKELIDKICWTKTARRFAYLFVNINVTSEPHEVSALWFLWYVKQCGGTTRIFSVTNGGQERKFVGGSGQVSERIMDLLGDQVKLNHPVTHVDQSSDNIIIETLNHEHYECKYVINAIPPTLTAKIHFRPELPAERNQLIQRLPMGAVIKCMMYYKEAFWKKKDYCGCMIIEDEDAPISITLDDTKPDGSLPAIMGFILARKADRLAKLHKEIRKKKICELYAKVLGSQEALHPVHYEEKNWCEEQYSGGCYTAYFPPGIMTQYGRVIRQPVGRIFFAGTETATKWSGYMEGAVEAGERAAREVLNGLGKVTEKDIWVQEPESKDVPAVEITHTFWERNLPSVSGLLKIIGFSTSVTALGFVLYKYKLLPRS
Method: (§2) Enzyme activity assays were performed according to the procedure reported by Matsumoto et al. with slight modifications. In order to prevent the destructive effect of light on MAO enzymes, the assays were performed in 96-well black plates. Phosphate buffer solution (0.1 M, pH = 7.4) was used for preparation of stock solutions (5 mg/mL) of both human recombinant MAO-A and MAO-B enzymes. […] The addition of the test compound solution was followed by addition of either MAO-A or MAO-B enzyme (50 μL/well) solutions. After 10 min of incubation at 37 °C, kynuramine (50 μL/well) was added and enzyme-substrate reaction was initiated. The plate was incubated for 20 min at 37 °C and then reaction was terminated by addition of 2 N NaOH (75 μL/well). The fluorimetric reads from the top was performed at 310 nm excitation and 380 nm emission wavelengths.

human recombinant MAO-B = biological target: T3, human recombinant MAO-B (Homo sapiens, UniProt P27338); experiment: MAO inhibition assay (kynuramine, fluorimetric)
T3 sequence (P27338 1-520): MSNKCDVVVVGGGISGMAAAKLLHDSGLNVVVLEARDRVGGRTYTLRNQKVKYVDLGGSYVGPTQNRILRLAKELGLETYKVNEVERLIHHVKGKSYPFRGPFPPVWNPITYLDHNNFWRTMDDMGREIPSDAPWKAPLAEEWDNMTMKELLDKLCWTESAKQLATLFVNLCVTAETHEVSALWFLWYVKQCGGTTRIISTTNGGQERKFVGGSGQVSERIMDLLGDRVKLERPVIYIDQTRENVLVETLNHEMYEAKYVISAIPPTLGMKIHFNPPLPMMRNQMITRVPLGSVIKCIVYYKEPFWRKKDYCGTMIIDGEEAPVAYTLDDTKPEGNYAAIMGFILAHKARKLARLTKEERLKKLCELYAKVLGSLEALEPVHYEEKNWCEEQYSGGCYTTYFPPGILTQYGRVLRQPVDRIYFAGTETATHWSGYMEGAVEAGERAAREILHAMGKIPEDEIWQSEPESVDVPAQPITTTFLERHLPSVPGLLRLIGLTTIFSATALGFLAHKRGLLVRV
Method: as §2

AChE = AChE (Homo sapiens, UniProt P22303)
Chain of AChE (P22303 32-614): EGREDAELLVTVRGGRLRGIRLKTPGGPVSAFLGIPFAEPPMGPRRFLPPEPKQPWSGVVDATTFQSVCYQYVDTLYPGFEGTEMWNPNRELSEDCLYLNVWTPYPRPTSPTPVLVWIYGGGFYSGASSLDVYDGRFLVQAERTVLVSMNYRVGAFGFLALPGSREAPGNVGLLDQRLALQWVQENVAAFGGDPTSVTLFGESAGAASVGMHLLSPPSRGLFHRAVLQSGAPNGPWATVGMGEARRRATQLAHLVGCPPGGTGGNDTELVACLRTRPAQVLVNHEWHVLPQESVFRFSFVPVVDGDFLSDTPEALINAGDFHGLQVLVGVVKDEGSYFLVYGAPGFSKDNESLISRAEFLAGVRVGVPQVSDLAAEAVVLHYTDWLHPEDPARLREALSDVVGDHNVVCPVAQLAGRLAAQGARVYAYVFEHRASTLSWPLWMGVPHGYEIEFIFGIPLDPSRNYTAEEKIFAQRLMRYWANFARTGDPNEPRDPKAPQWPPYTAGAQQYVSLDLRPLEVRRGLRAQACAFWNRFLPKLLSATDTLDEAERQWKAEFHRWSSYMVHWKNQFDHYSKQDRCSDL
Method: Inhibition potency of the test compounds against AChE was determined using Ellman’s method. Enzyme solutions were prepared in gelatin solution (1%, w/v), at the concentration of 2.5 units/mL. […] AChE solution (20 µL/well) and test solution (20 µL/well) were added to phosphate buffer solution (140 µL/well, pH 8.0 ± 0.1), and incubated at 25 °C for 5 min. […] The production of the yellow anion was recorded by multimode microplate reader for 10 min at 412 nm. As a control, an identical solution of the enzyme without the inhibitor was processed. The control and the inhibitor readings were corrected with blank-readings. All processes were assayed in four independent determinations.

COX-2 = biological target: T4, COX-2 (Homo sapiens, UniProt P35354); experiment: Fluorimetric COX-2 inhibition screening kit (BioVision); conditions: for COX-2 inhibition at the initial concentrations: 10^−3 M and 10^−4 M; for inhibition at 10 µM: 10^−5 M; for inhibition at 1 µM: 10^−6 M, read-out: COX 2 Inhibition %; for inhibition at 0.1 µM: 10^−7 M; for inhibition at 0.01 µM: 10^−8 M; for inhibition at 0.001 µM: 10^−9 M
T4 construct: purchased BioVision (Milpitas, CA, USA) K547-100
T4 sequence (P35354 18-604): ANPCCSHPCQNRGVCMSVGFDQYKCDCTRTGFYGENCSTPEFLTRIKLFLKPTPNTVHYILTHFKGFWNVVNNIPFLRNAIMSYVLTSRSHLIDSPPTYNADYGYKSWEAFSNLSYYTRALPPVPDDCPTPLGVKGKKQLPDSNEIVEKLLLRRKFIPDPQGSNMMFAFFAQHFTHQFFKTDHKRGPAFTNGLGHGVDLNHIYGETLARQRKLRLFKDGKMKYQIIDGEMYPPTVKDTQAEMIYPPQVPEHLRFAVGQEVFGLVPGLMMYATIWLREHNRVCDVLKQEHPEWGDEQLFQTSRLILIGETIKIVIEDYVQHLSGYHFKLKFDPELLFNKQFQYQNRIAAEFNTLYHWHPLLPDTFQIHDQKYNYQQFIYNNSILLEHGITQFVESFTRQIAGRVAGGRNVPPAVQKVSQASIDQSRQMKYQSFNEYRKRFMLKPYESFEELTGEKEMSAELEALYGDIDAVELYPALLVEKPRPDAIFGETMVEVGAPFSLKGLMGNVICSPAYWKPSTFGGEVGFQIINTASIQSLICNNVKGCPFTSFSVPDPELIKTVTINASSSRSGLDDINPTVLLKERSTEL
Method: as §1

Structure (SMILES)	IC50 (COX-1)	COX-1 Inhibition (%) (COX-1; 10^-3 M)	COX-1 Inhibition (%) (COX-1; 10^-4 M)	COX-1 inhibition at the initial concentrations (COX-1)	inhibition at 10 µM (COX-1)	inhibition at 1 µM (COX-1)	inhibition at 0.1 µM (COX-1)	inhibition at 0.01 µM (COX-1)	inhibition at 0.001 µM (COX-1)	MAO-A Inhibition (%) (human recombinant MAO-A; 10^-3 M)	MAO-A Inhibition (%) (human recombinant MAO-A; 10^-4 M)	MAO-B Inhibition (%) (human recombinant MAO-B; 10^-3 M)	MAO-B Inhibition (%) (human recombinant MAO-B; 10^-4 M)	AChE Inhibition (%) (AChE; 10^-3 M)	AChE Inhibition (%) (AChE; 10^-4 M)	IC50 (COX-2)	COX-2 Inhibition (%) (COX-2; 10^-3 M)	COX-2 Inhibition (%) (COX-2; 10^-4 M)	COX-2 inhibition at the initial concentrations (COX-2)	inhibition at 10 µM (COX-2)	also measured
Cc1ccc(-c2nc3ccccc3n2CCN2CCOCC2)cc1 [Compound 2a, 2-(4-Methylphenyl)-1-[2-(morpholin-4-yl)ethyl]-1H-benzimidazole]	56.1 µM	75.08%	71.23%	more than 50%	47.4 ± 1.08%	40.1 ± 0.92%	35.7 ± 0.97%	30.5 ± 0.83%	28.8 ± 0.79%	24.29%	19.15%	25.27%	16.63%	21.80%	21.80%	58.7 µM	58.28%	56.23%	more than 50%	43.7 ± 1.07%	inhibition at 1 µM (COX-2): 40.3 ± 1.1%; inhibition at 0.1 µM (COX-2): 38.3 ± 0.92%; inhibition at 0.01 µM (COX-2): 36.2 ± 0.87%; inhibition at 0.001 µM (COX-2): 32.4 ± 0.91%
Fc1ccc(-c2nc3ccccc3n2CCN2CCOCC2)cc1 [Compound 2d, 2-(4-Fluorophenyl)-1-[2-(morpholin-4-yl)ethyl]-1H-benzimidazole]	–	31.87%	29.36%	–	–	–	–	–	–	39.79%	33.11%	45.29%	38.96%	16.20%	16.20%	–	21.08%	28.46%	–	–	–
c1ccc(COc2ccc(-c3nc4ccccc4n3CCN3CCOCC3)cc2)cc1 [Compound 2f, 2-(4-Benzyloxyphenyl)-1-[2-(morpholin-4-yl)ethyl]-1H-benzimidazole]	43.2 µM	75.37%	79.08%	more than 50%	45.4 ± 0.99%	42.1 ± 0.87%	34.2 ± 0.76%	32.7 ± 0.78%	29.9 ± 0.68%	32.14%	20.65%	39.32%	31.14%	15.75%	15.75%	44.9 µM	61.23%	60.20%	more than 50%	47 ± 1.13%	inhibition at 1 µM (COX-2): 40.2 ± 1.24%; inhibition at 0.1 µM (COX-2): 35.6 ± 0.91%; inhibition at 0.01 µM (COX-2): 31.5 ± 0.84%; inhibition at 0.001 µM (COX-2): 28.7 ± 0.63%
Brc1ccc(-c2nc3ccccc3n2CCN2CCOCC2)cc1 [Compound 2g, 2-(4-Bromophenyl)-1-[2-(morpholin-4-yl)ethyl]-1H-benzimidazole]	–	29.47%	21.74%	–	–	–	–	–	–	30.85%	22.29%	38.63%	30.87%	13.04%	13.04%	–	16.30%	19.03%	–	–	–
CCN(CC)c1ccc(-c2nc3ccccc3n2CCN2CCOCC2)cc1 [Compound 2h, 2-(4-Diethylaminophenyl)-1-[2-(morpholin-4-yl)ethyl]-1H-benzimidazole]	43 µM	75.21%	78.21%	more than 50%	46.3 ± 1.09%	40.9 ± 0.99%	35.6 ± 0.81%	30.8 ± 0.93%	24.2 ± 0.72%	36.71%	23.16%	45.58%	36.16%	10.49%	10.49%	51.2 µM	56.20%	57.08%	more than 50%	47.5 ± 1.08%	inhibition at 1 µM (COX-2): 42.6 ± 1.16%; inhibition at 0.1 µM (COX-2): 31.8 ± 0.99%; inhibition at 0.01 µM (COX-2): 28.4 ± 0.82%; inhibition at 0.001 µM (COX-2): 23 ± 0.68%
CN(C)c1ccc(-c2nc3ccccc3n2CCN2CCOCC2)cc1 [Compound 2i, 2-(4-Dimethylaminophenyl)-1-[2-(morpholin-4-yl)ethyl]-1H-benzimidazole]	–	30.08%	22.62%	–	–	–	–	–	–	26.91%	19.20%	22.17%	14.43%	7.54%	7.54%	–	18.47%	25.76%	–	–	–
N#Cc1ccc(-c2nc3ccccc3n2CCN2CCOCC2)cc1 [Compound 2k, 2-(4-Cyanophenyl)-1-[2-(morpholin-4-yl)ethyl]-1H-benzimidazole]	–	28.63%	28.13%	–	–	–	–	–	–	31.99%	26.86%	43.22%	34.29%	20.45%	20.45%	–	26.39%	20.46%	–	–	–
